Measurements reported in patent US7728128B2, “Dibenzo[c,h][1,5]naphthyridines and their use as DNA probes” (Institut National de la Sante et de la Recherche Medicate …, priority 2006, dated 2010).
In brackets after ≈: the same amount, converted by molar mass.

How the values were obtained:
[1] = system: ds plasmid DNA or heat-denatured E. coli RNA; experiment: fluorescence titration with dsDNA versus RNA (selectivity); assay type: binding; settings: for emission strength with DNA relative to RNA: 50 μM DNA or RNA
Description: Plasmid dsDNA was purified using a Qiagen Maxiprep kit and used in the supercoiled form for absorption and fluorescence studies. E. coli total RNA was bought from Ambion, dA/dT and dG/dC homopolymers were purchased from Amersham Biosciences. Calf thymus (CT) high-molecular weight DNA and Hoechst 33258 were obtained from Sigma-Aldrich. Ethidium bromide was purchased from Amresco.
Spectrometry and fluorimetry were performed using a SpectraMax384 (Molecular Devices) and a Luminescence Spectrometer LS50B (Perkin Elmer). Fluorescence emission of compound I in complex with DNA and RNA was measured in 50 mM Na phosphate buffer, pH 7.2 at room temperature. Before use, total E. coli RNA was heated to 100° C. for 1 min and immediately transferred on ice for 5 min before mixing with compound I solution. All measurements were carried out at room temperature (20-23° C.) in solutions protected from light and incubated for ˜10-15 min after dilution. The units of b/dye and bp/dye are defined as moles of RNA bases or DNA base pairs per mole of dye. Quantum yield was measured using quinine sulphate as standard as described in (Iupac Commission on Photochemistry, EPA Newsletter of November 1986, 21-29) using FLUOROMAX-3 Spex Spectrofluorometer (HORIBA) and UVIKON XL Spectrophotometer (SECOMAM).
A number of known fluorescent dyes bind preferentially to dsDNA, while others, like the SYTO dyes, bind similarly well to dsDNA, ssDNA and RNA (Haugland, R. P. et al., supra). Knowing these properties is important to the design of experiments where one or another (or several) type(s) of nucleic acids may be present. To investigate the selectivity of compound I, the inventors have compared fluorescence intensities at 484 nm of the dye incubated with ds plasmid DNA or heat-denatured E. coli RNA. […] At higher dye/b or dye/bp ratio, the difference was smaller (1.8-fold at dye/b(bp) ratio 0.2), meaning that elevated amounts of dye could saturate both types of nucleic acids. The inventors then performed the experiment in the opposite sense, i.e. titrating a fixed amount of compound I at 1 μM with increasing amounts of DNA and RNA.

CT DNA = experiment: viscometry (hydrodynamic studies) of CT DNA solutions; assay type: binding, calf
Description: Calf thymus (CT) DNA was dissolved in 50 mM Na-phosphate buffer, pH 7.2, to a concentration of 0.1 or 0.5 mM relative to base pairs as described in the legend for FIGS. 3A and B. DNA solution was allowed to run through a custom-made capillary viscometer and the time necessary for the meniscus to pass a certain distance was measured using a stopwatch. All experiments were performed at 23° C. Viscosity values were calculated using the equation: η=(t−t0)/t0, where t is the flow time of DNA solution (with or without dye), and t0 is the flow time of Na-phosphate buffer alone. For each control and DNA solutions with dyes flow times were measured three to five times. Viscosity of DNA solutions with dyes were calculated as (η/η0)^1/3, where η0 and η are relative viscosities of the CT DNA solution in the absence and presence of the dye, respectively. This calculation stems from the relationship which exists between the relative solution viscosity and the relative contour length (L/L0): L/L0=(η/η0)^1/3, where L stands for the apparent molecular length (Muller, W. et al., 1968, J Mol Biol, 35, 251-290). Average viscosity values and standard error of the mean (SEM) were determined using (η/η0)^1/3 values calculated for each time flow measurement.
DNA-binding dyes interact with dsDNA by intercalation or external binding, or both. External binding most often involves the minor groove of DNA (Kopka et al.; Pjura, P. E., et al., 1987, J Mol Biol, 197, 257-271). Intercalation occurs when a ligand inserts itself between the opposite strands of DNA. In order to determine the mechanism of compound I binding to dsDNA, the inventors performed hydrodynamic studies. This approach is based on the observation that intercalating molecules increase the length of DNA fragments and, consequently, enhance the viscosity of DNA solutions (Muller W. et al.; Suh, D. et al., 1995, Bioorg Med Chem, 3, 723-728). For this experiment, compound I has been compared to the known DNA intercalator ethidium bromide and to the external minor groove binder Hoechst 33258. CT DNA at 0.5 mM was mixed with drugs at 0.1 mM concentration (0.2 dye/bp ratio) and used for viscometry measurements.
The inventors then wondered whether the increase in viscosity is equally matched by the increase in fluorescence intensity. To answer this question, CT DNA at 0.1 mM (bp) was mixed with increasing amounts of compound I and viscosity measurements were performed as above. The viscosity of the DNA/compound I solutions increased up to a dye/bp ratio 1 (FIG. 3B). To correlate the increase in viscosity with fluorescence, the inventors measured fluorescence intensities at 484 nm of the compound I/DNA solutions used for the viscosity measurements.

solubility in DMSO = assay type: physicochemical; settings: organic solvent or mixture, free base, read-out: solubility (saturation)
Description: Solubility of compound I: In DMSO, compound I (free base) is soluble until saturation at ˜7 mM. As much as 1 volume of 7 mM, compound I in DMSO mixed with 7 volumes of H2O forms a turbid solution (0.875 mM compound I in ˜12% DMSO). Upon sonication for 1 min, this solution becomes limpid and can be further dissolved in aqueous solutions.

human histone 1 (H1) = experiment: titration of plasmid DNA with dye in absence or presence of histone 1; assay type: biochemical

COc1ccc2c(c1)c(C)nc1c3ccc(OC)cc3c(NCCCN(C)C)nc21 [Compound I, N′-(2,8-dimethoxy-12-methyl-dibenzo[c,h][1,5]naphthyridin-6-yl)-N,N-dimethyl-propane-1,3-diamine]
saturation of fixed amount of dye by RNA (not saturated) ([1]; 1 μM dye): > 250 b/dye | saturation of fixed amount of dye by dsDNA ([1]; 1 μM dye): ~30 bp/dye | fluorescence with dsDNA relative to RNA ([1]; 1 μM dye titrated with DNA and RNA, same b(bp)/dye ratios): 2.5-3.6 | emission strength with DNA relative to RNA ([1]; dye/b(bp) ratio 0.2): 1.8 fold | emission strength with DNA relative to RNA ([1]; low dye/bp and dye/b ratios, 484 nm): 6 fold | dye/bp ratio up to which viscosity increased (CT DNA; CT DNA 0.1 mM (bp)): ≤ 1 | dye/bp ratio of maximal fluorescence intensity (CT DNA; CT DNA 0.1 mM (bp), 484 nm): 0.2 | effect on viscosity of DNA solution (CT DNA; CT DNA 0.5 mM, drug 0.1 mM (0.2 dye/bp ratio)): increasing the viscosity of the DNA solution | solubility (solubility in DMSO): ~7 mM (≈ 2830 µg/mL) | effect of H1 on dye/DNA fluorescence (human histone 1 (H1); 1 μM plasmid DNA, 1 μM H1, emission 484 nm, excitation 435 nm): H1 significantly affected the fluorescence | effect of H1 on free dye fluorescence (human histone 1 (H1); excited at 391 nm): not quenched by H1
